# System: MSCs
# Assay: Whole genome expression analysis (Illumina microarray) of treated MSCs
# Format: cell-based, Human
# Description: MSCs were seeded in T25 flasks at 5000 cells/cm^2 and allowed to attach overnight in proliferation medium. […] After 48 hours, RNA was isolated as described above. From 500 ng of RNA, cRNA was synthesized using the Illumina TotalPrep RNA amplification Kit (Ambion), according to the manufacturer's protocol and the quality of RNA and cRNA was verified on a Bioanalyzer 2100 (Agilent). Microarrays were performed using Illumina HT-12 v4 expression Beadchips, according to the manufacturer's protocol. Briefly, 750 ng of cRNA was hybridized on the array overnight after which the array was washed and blocked. Then, by addition of streptavidin Cy-3 a fluorescent signal was developed. Arrays were scanned on an Illumina iScan reader and raw intensity values were background corrected in GenomeStudio (Illumina). Further data processing and statistical testing were performed with R and Bioconductor statistical software (www.bioconductor.org), using package lumi. Raw intensity values were transformed using variance stabilization and a quantile normalization was performed. A linear modelling approach with empirical Bayesian methods, as implemented in Limma package (54), was applied for differential expression analysis of the resulting probe-level expression values. A gene list, containing only those genes with an absolute 1.5-fold change between different treatments, was uploaded to Ingenuity Pathway Analysis (IPA) software and used for core analysis. Pathways or networks with a p-value of 0.05 were considered statistically significant.
compound,measurement,setting,value
"CC(=O)N(O)CCCCCNC(=O)CCC(=O)N(O)CCCCCNC(=O)CCC(=O)N(O)CCCCCN [DFO, reference compound]",interleukin-8 (Il-8) gene expression,"MSCs treated for two days, 150 µM DFO or 200 µM PHE",did not affect this gene at all
same,"expression of HRE-containing genes (metabolism, cell growth and survival, endothelial genes)","MSCs treated for two days, 150 µM DFO or 200 µM PHE, relative to basic medium",increased expression
same,logFC(D142_ DFO - D142_BAS) NTN4,"ProbeID ILMN 2113490, DFO versus Bas","2,23"
same,logFC(D142_ DFO - D142_BAS) HIST1H2BD,"ProbeID ILMN_1651496, DFO versus Bas","3,33"
same,logFC(D142_ DFO - D142_BAS) PFKFB4,"ProbeID ILMN_1653292, DFO versus Bas","3,53"
same,logFC(D142_ DFO - D142_BAS) FZD2,"ProbeID ILMN_1653711, DFO versus Bas","-2,10"
same,logFC(D142_ DFO - D142_BAS),"ProbeID ILMN_1655796, DFO versus Bas","2,46"
same,logFC(D142_ DFO - D142_BAS) PLAU,"ProbeID ILMN_1656057, DFO versus Bas","-2,69"
same,logFC(D142_ DFO - D142_BAS) C1orf198,"ProbeID ILMN_1657683, DFO versus Bas","-2,30"
same,logFC(D142_ DFO - D142_BAS) KRTAP2-1,"ProbeID ILMN_1658448, DFO versus Bas","2,71"
same,logFC(D142_ DFO - D142_BAS) SLC2A1,"ProbeID ILMN_1659027, DFO versus Bas","3,46"
same,logFC(D142_ DFO - D142_BAS) HIST2H2AA3,"ProbeID ILMN_1659047, DFO versus Bas","2,07"
same,logFC(D142_ DFO - D142_BAS) C7orf68,"ProbeID ILMN_1659990, DFO versus Bas","3,04"
same,logFC(D142_ DFO - D142_BAS) LOC728285,"ProbeID ILMN_1660067, DFO versus Bas","2,89"
same,logFC(D142_ DFO - D142_BAS) PFKFB3,"ProbeID ILMN_1660847, DFO versus Bas","2,48"
same,logFC(D142_ DFO - D142_BAS) DDIT4,"ProbeID ILMN_1661599, DFO versus Bas","4,37"
same,logFC(D142_ DFO - D142_BAS) CDC20,"ProbeID ILMN_1663390, DFO versus Bas","-3,40"
same,logFC(D142_ DFO - D142_BAS) MGC87042,"ProbeID ILMN_1663575, DFO versus Bas","-2,17"
same,logFC(D142_ DFO - D142_BAS) PPP1R14C,"ProbeID ILMN_1664855, DFO versus Bas","2,96"
same,logFC(D142_ DFO - D142_BAS) ERRFI1,"ProbeID ILMN_1665510, DFO versus Bas","2,53"
same,logFC(D142_ DFO - D142_BAS) C1orf24,"ProbeID ILMN_1667966, DFO versus Bas","2,70"
same,logFC(D142_ DFO - D142_BAS) PPM1D,"ProbeID ILMN_1670875, DFO versus Bas","2,06"
same,logFC(D142_ DFO - D142_BAS) ACTA2,"ProbeID ILMN_1671703, DFO versus Bas","-2,61"
same,logFC(D142_ DFO - D142_BAS) JAM2,"ProbeID ILMN_1672350, DFO versus Bas","2,05"
same,logFC(D142_ DFO - D142_BAS) TFRC,"ProbeID ILMN_1674243, DFO versus Bas","2,31"
same,logFC(D142_ DFO - D142_BAS) MTHFD2,"ProbeID ILMN_1674706, DFO versus Bas","2,79"
same,logFC(D142_ DFO - D142_BAS) MT3,"ProbeID ILMN_1675947, DFO versus Bas","3,00"
same,logFC(D142_ DFO - D142_BAS) DDIT3,"ProbeID ILMN_1676984, DFO versus Bas","3,92"
same,logFC(D142_ DFO - D142_BAS) CHN1,"ProbeID ILMN_1678493, DFO versus Bas","-2,71"
same,logFC(D142_ DFO - D142_BAS) SLC3A2,"ProbeID ILMN_1679041, DFO versus Bas","2,26"
same,logFC(D142_ DFO - D142_BAS) CLK1,"ProbeID ILMN_1679727, DFO versus Bas","2,03"
same,logFC(D142_ DFO - D142_BAS) MAFF,"ProbeID ILMN_1680139, DFO versus Bas","2,48"
same,logFC(D142_ DFO - D142_BAS) GPRC5A,"ProbeID ILMN_1682599, DFO versus Bas","2,35"
same,logFC(D142_ DFO - D142_BAS) IER3,"ProbeID ILMN_1682717, DFO versus Bas","2,14"
same,logFC(D142_ DFO - D142_BAS) RRAD,"ProbeID ILMN_1683179, DFO versus Bas","2,83"
same,logFC(D142_ DFO - D142_BAS) GPT2,"ProbeID ILMN_1684158, DFO versus Bas","2,16"
same,logFC(D142_ DFO - D142_BAS) INHBB,"ProbeID ILMN_1685714, DFO versus Bas","2,06"
same,logFC(D142_ DFO - D142_BAS) TOP2A,"ProbeID ILMN_1686097, DFO versus Bas","-2,19"
same,logFC(D142_ DFO - D142_BAS) COLEC12,"ProbeID ILMN_1689088, DFO versus Bas","-3,20"
same,logFC(D142_ DFO - D142_BAS) CXCL12,"ProbeID ILMN_1689111, DFO versus Bas","-2,92"
same,logFC(D142_ DFO - D142_BAS) PDLIM7,"ProbeID ILMN_1690125, DFO versus Bas","-2,43"
same,logFC(D142_ DFO - D142_BAS) CRABP2,"ProbeID ILMN_1690170, DFO versus Bas","-2,06"
same,logFC(D142_ DFO - D142_BAS) STC2,"ProbeID ILMN_1691884, DFO versus Bas","3,54"
same,logFC(D142_ DFO - D142_BAS) PSAT1,"ProbeID ILMN_1692938, DFO versus Bas","3,93"
same,logFC(D142_ DFO - D142_BAS) P4HA1,"ProbeID ILMN_1693334, DFO versus Bas","3,24"
same,logFC(D142_ DFO - D142_BAS) GADD45A,"ProbeID ILMN_1694075, DFO versus Bas","2,63"
same,logFC(D142_ DFO - D142_BAS) KIF20A,"ProbeID ILMN_1695658, DFO versus Bas","-2,76"
same,logFC(D142_ DFO - D142_BAS) DDIT4L,"ProbeID ILMN_1696537, DFO versus Bas","-2,14"
same,logFC(D142_ DFO - D142_BAS) TNFRSF10B,"ProbeID ILMN_1699265, DFO versus Bas","2,74"

# From patent EP2607478A1, “Phenanthroline treated MSC” (Universiteit Twente, priority 2011, dated 2013)
